In patent publication US20230192703A1, “Polycyclic amide derivative as CDK9 inhibitor, preparation method therefor and use thereof” (Suzhou AlphaMa Biotechnology Co., Ltd., priority 2020, published 2023):

Legend:
CDK9 kinase = molecular target: T1, CDK9 kinase (Homo sapiens, UniProt P50750); test: Inhibitory effect on the kinase activity of CDK9 in vitro; format: biochemical; conditions: CDK9 kinase (Millipore), CTD3 substrate polypeptide, Caliper
T1 construct: purchased Millipore 14-685M
Description: The detection of the inhibitory effect of the compounds of the present disclosure on the kinase activity of CDK9 in vitro was determined by the following method:
Compound preparation: The compound was accurately weighed and dissolved in DMSO (Sigma, D2650) to a concentration of 100 um for later use. The compound was diluted to 5-fold of a desired highest concentration, and diluted 4-fold into 6 concentration gradients, allowing the final concentration of the compound in the reaction system to be 100, 25, 6.25, 1.56, 0.39, 0.098 nM. 5 ul was taken to a 384-well plate (Corning, 4512).
Detection: Data was collected by Caliper.
Calculation: The IC50 value was calculated by Graphpad prism 5.0 software according to the concentration of the compound and the corresponding signal value.

Mv4-11 cells = test: Inhibition of the proliferation of Mv4-11 cells (CCK8); format: cell-based; conditions: Mv4-11 cell proliferation, CCK8 OD450
Description: The inhibition effect of the compounds of the present disclosure on the proliferation of Mv4-11 cells (ATCC:CRL-9591TM) in vitro was determined by the following method:
Cell inoculation: Mv4-11 cells with good growing state in logarithmic growth phase were inoculated into a 96-well plate at 20000 cells per well and 50 uL, and cultured at 37° C. and under 5% CO2 condition for 2-4 h. Administration: The compound was diluted with 1640 medium containing 10% FBS and 1% PS: 0.4 uL of the compound with an initial concentration of 1 mM was placed in a dilution plate, each added with 199.6 uL of the above culture medium, and gradiently diluted 4-fold, so that the final concentration in the added cell was 1000, 250, 62.5, 15.625, 3.91, 0.98, 0.24, 0.06 nM. 50 μL of the medium containing the compound was sequentially added, and it was placed in a 37° C., 5% CO2 cell incubator for 48 hours.
Detection: 10 uL CCK8 (Dojindo, CK 04) solution was added to each well, incubated in 37° C. 5% CO2 cell incubator for 2 hours, and then the OD450 value was read by Synegry H1 (BioTek) multimode microplate reader.
Calculation: The IC50 value was calculated using Graphpad prism 5.0 software according to the concentration of the compound and the corresponding signal value.

T1 sequence (P50750 whole entry): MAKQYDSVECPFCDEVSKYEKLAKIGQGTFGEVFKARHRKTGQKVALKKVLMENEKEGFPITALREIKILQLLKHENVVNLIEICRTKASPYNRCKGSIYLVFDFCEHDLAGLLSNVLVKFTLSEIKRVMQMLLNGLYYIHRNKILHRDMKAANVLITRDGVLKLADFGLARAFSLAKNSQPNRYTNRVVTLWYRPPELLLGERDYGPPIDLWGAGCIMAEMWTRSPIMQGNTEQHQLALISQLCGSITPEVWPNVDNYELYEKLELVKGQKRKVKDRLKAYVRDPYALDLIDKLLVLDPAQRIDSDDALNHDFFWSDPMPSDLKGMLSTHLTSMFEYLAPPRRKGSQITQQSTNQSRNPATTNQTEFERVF
T1 sequence (O60563 whole entry partner): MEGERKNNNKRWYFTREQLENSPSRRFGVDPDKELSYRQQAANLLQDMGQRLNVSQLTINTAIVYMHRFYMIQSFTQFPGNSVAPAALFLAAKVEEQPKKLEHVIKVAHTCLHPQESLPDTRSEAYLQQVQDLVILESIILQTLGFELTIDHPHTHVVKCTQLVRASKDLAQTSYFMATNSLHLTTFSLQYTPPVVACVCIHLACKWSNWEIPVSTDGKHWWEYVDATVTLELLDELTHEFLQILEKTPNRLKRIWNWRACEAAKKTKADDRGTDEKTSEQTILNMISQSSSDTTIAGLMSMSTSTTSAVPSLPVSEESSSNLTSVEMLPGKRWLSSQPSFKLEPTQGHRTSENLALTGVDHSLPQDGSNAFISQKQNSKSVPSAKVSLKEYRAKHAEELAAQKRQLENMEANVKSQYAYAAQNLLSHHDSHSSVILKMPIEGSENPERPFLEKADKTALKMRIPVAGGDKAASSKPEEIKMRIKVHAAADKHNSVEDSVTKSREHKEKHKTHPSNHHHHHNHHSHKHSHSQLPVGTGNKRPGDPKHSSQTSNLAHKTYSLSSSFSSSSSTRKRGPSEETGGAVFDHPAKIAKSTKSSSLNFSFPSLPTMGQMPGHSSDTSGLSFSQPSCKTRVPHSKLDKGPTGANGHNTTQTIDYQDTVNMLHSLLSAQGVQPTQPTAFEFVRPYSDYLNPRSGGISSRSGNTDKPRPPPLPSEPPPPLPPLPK

SMILES | IC50 (CDK9 kinase) | IC50 (Mv4-11 cells; Homo sapiens, MV4-11, 48 h) | IC50 (Mv4-11 cells; 48 hours)
CC(=O)N[C@@H]1CCC[C@H](C(=O)Nc2cc(-c3cc(C(N)=O)c4n3CC(C)(C)C4)c(F)cn2)C1 [Compound 31, 5-(2-((1S,3R)-3-acetylaminocyclohexane-1-carboxamido)-5-fluoropyridin-4-yl)-2,2-dimethyl-2,3-dihydro-1H-pyrrolizine-7-carboxamide] | 4.8 nM | 9.2 nM | 
CC(=O)N1C[C@H]2C[C@H](C(=O)Nc3cc(-c4cnn5c4CC(C)(C)C5)c(Cl)cn3)C[C@H]2C1 [Compound 4-1, (3aR,5s,6aS)-2-acetyl-N-(5-chloro-4-(5,5-dimethyl-5,6-dihydro-4H-pyrrolo[1,2-b]pyrazol-3-yl)pyridin-2-yl)octahydrocyclopenta[c]pyrrole-5-carboxamide] |  | 14.8 nM | 
CC(=O)N[C@H]1C[C@@H]2C[C@H](C(=O)Nc3cc(-c4cc(C#N)n5c4CC(C)(C)C5)c(Cl)cn3)C[C@@H]2C1 (single isomer, unassigned) [Compound 14-2-1] | 4.3 nM | 10.6 nM | 
CC(=O)N[C@@H]1CCC[C@H](C(=O)Nc2cc(-c3cc(C#N)n4c3CC(C)(C)C4)c(F)cn2)C1 [Compound 10, (1S,3R)-3-acetamido-N-(4-(5-cyano-2,2-dimethyl-2,3-dihydro-1H-pyrrolizin-7-yl)-5-fluoropyridin-2-yl)cyclohexane-1-carboxamide] |  | 26.9 nM | 
CC(=O)N[C@@H]1CCC[C@H](C(=O)Nc2cc(-c3cc(C#N)n4c3CC(C)(C)C4)ccn2)C1 [Compound 11, (1S,3R)-3-acetamido-N-(4-(5-cyano-2,2-dimethyl-2,3-dihydro-1H-pyrrolizin-7-yl)pyridin-2-yl)cyclohexane-1-carboxamide] |  | 2.2 nM | 
CC(=O)N[C@@H]1CCC[C@H](C(=O)Nc2cc(-c3cc(C(N)=O)n4c3CC(C)(C)C4)c(F)cn2)C1 [Compound 33, 7-(2-((1S,3R)-3-acetylaminocyclohexane-1-carboxamido)-5-fluoropyridin-4-yl)-2,2-dimethyl-2,3-dihydro-1H-pyrrolizine-5-carboxamide] |  | 1.3 nM | 
CC(=O)N[C@@H]1C[C@@H]2C[C@@H](C(=O)Nc3cc(-c4cc(C#N)n5c4CC(C)(C)C5)c(Cl)cn3)C[C@@H]2C1 (single isomer, unassigned) [Compound 14-1-2] |  | 11.1 nM | 
CC(=O)N[C@@H]1CCC[C@H](C(=O)Nc2cc(-c3cc(C#N)n4c3CC(C)(C)C4)c(Cl)cn2)C1 [Compound 1, (1S,3R)-3-acetamido-N-(5-chloro-4-(5-cyano-2,2-dimethyl-2,3-dihydro-1H-pyrrolizin-7-yl)pyridin-2-yl)cyclohexane-1-carboxamide] | 2.1 nM | 1.6 nM | 
CC(=O)N[C@@H]1CCC[C@H](C(=O)Nc2cc(-c3cnn4c3CC(C)(C)C4)c(C(F)(F)F)cn2)C1 [Compound 30, (1S,3R)-3-acetamido-N-(4-(5,5-dimethyl-5,6-dihydro-4H-pyrrolo[1,2-b]pyrazol-3-yl)-5-(trifluoromethyl)pyridin-2-yl)cyclohexane-1-carboxamide] | 6.3 nM | 15.3 nM | 
CC(=O)N1C[C@H]2CC(C(=O)Nc3cc(-c4cnn5c4CC(C)(C)C5)c(Cl)cn3)C[C@H]2C1 (single isomer, unassigned) [Compound 4-2] | 2.9 nM | 6.8 nM | 
C[C@H](N)C(=O)N1C[C@H]2CC(C(=O)Nc3cc(-c4cnn5c4CC(C)(C)C5)c(Cl)cn3)C[C@H]2C1 (stereo partly drawn) [Compound 5, (3aR,6aS)-2-(L-alanyl)-N-(5-chloro-4-(5,5-dimethyl-5,6-dihydro-4H-pyrrolo[1,2-b]pyrazol-3-yl)pyridin-2-yl)octahydrocyclopenta[c]pyrrole-5-carboxamide] | 2.8 nM | 7.6 nM | 
CC(=O)N[C@@H]1CCC[C@H](C(=O)Nc2cc(-c3cc(C#N)c4n3CC(C)(C)C4)c(Cl)cn2)C1 [Compound 16, (1S,3R)-3-acetamido-N-(5-chloro-4-(7-cyano-2,2-dimethyl-2,3-dihydro-1H-pyrrolizin-5-yl)pyridin-2-yl)cyclohexane-1-carboxamide] | 2.9 nM |  | 
CC(=O)N[C@@H]1CCC[C@H](C(=O)Nc2cc(-c3cc(C(N)=O)c4n3CC(C)(C)C4)ccn2)C1 [Compound 28, 5-(2-((1S,3R)-3-acetylaminocyclohexane-1-carboxamido)pyridin-4-yl)-2,2-dimethyl-2,3-dihydro-1H-pyrrolizine-7-carboxamide] |  | 36.5 nM | 
CC(=O)N[C@H]1C[C@@H]2C[C@@H](C(=O)Nc3cc(-c4cc(C#N)n5c4CC(C)(C)C5)c(Cl)cn3)C[C@@H]2C1 (single isomer, unassigned) [Compound 14-1-1] |  | 23.9 nM | 

Now from value to compound:

IC50 (CDK9 kinase) | IC50 (Mv4-11 cells; Homo sapiens, MV4-11, 48 h) | IC50 (Mv4-11 cells; 48 hours) | SMILES
2.8 nM | 0.5 nM |  | CC1(C)Cc2c(-c3cc(NC(=O)[C@@H]4CCC[C@@H](c5cccnc5)C4)ncc3Cl)cnn2C1 (single isomer, unassigned) [Compound 20-4]
7 nM | 15 nM |  | CC1(C)Cc2c(-c3cc(NC(=O)[C@@H]4CCC[C@H](c5cccnc5)C4)ncc3Cl)cnn2C1 (single isomer, unassigned) [Compound 20-2]
 | 8.6 nM |  | CC(=O)N1C[C@H]2C[C@@H](C(=O)Nc3cc(-c4cc(C#N)n5c4CC(C)(C)C5)c(Cl)cn3)C[C@H]2C1 [Compound 7-2, (3aR,5r,6aS)-2-acetyl-N-(5-chloro-4-(5-cyano-2,2-dimethyl-2,3-dihydro-1H-pyrrolizin-7-yl)pyridin-2-yl)octahydrocyclopenta[c]pyrrole-5-carboxamide]
 | 68.5 nM |  | CC1(C)Cc2c(-c3cc(NC(=O)[C@H]4CCC[C@H](c5ccncc5)C4)ncc3Cl)cnn2C1 (single isomer, unassigned) [Compound 21-1]
2.8 nM | 6.3 nM |  | CC1(C)Cc2c(-c3cc(NC(=O)[C@H]4CCC[C@@H](c5ccncc5)C4)ncc3Cl)cnn2C1 (single isomer, unassigned) [Compound 21-3]
2.8 nM |  | 0.9 nM | CC(=O)N1C[C@H]2CC(C(=O)Nc3cc(-c4cc(C(N)=O)n5c4CC(C)(C)C5)ccn3)C[C@H]2C1 (single isomer, unassigned) [Compound 32-2]
28.6 nM | 352 nM |  | CC1(C)Cc2c(-c3cc(NC(=O)[C@H]4CCC[C@H](c5cccnc5)C4)ncc3Cl)cnn2C1 (single isomer, unassigned) [Compound 20-1]
> 100 nM | > 1000 nM |  | CC1(C)Cc2c(-c3cc(NC(=O)[C@H]4CCC[C@@H](c5cccnc5)C4)ncc3Cl)cnn2C1 (single isomer, unassigned) [Compound 20-3]
5.5 nM | 12.2 nM |  | CC(=O)N1CC[C@@]2(CC[C@@H](C(=O)Nc3cc(-c4cnn5c4CC(C)(C)C5)c(Cl)cn3)C2)C1 (single isomer, unassigned) [Compound 19-1]
4.8 nM |  | 3.5 nM | CC(=O)N1C[C@H]2CC(C(=O)Nc3cc(-c4cc(C(N)=O)n5c4CC(C)(C)C5)ccn3)C[C@H]2C1 (single isomer, unassigned) [Compound 32-1]
 | 71.9 nM |  | CC1(C)Cc2c(-c3cc(NC(=O)[C@@H]4CCC[C@@H](c5ccncc5)C4)ncc3Cl)cnn2C1 (single isomer, unassigned) [Compound 21-4]
3.8 nM | 7.9 nM |  | Cn1cc([C@@H]2CCC[C@H](C(=O)Nc3cc(-c4cnn5c4CC(C)(C)C5)c(Cl)cn3)C2)cn1 (single isomer, unassigned) [Compound 23-1]
 | 9 nM |  | CC(=O)N[C@@H]1C[C@@H]2C[C@H](C(=O)Nc3cc(-c4cc(C(N)=O)n5c4CC(C)(C)C5)c(F)cn3)C[C@@H]2C1 [Compound 34-2, 7-(2-((2s,3aR,5r,6aS)-5-acetylaminooctahydropentalene-2-carboxamido)-5-fluoropyridin-4-yl)-2,2-dimethyl-2,3-dihydro-1H-pyrrolizine-5-carboxamide]
3.7 nM | 14.3 nM |  | CC1(C)Cc2c(-c3cc(NC(=O)[C@H]4C[C@H]5C[C@@H](C(N)=O)C[C@H]5C4)ncc3Cl)cc(C(N)=O)n2C1 [Compound 15-2, (2r,3aR,5s,6aS)-N-(4-(5-carbamoyl-2,2-dimethyl-2,3-dihydro-1H-pyrrolizin-7-yl)-5-chloropyridin-2-yl)octahydropentalene-2,5-dicarboxamide]
 | 4.2 nM |  | CC(=O)N[C@@H]1CCC[C@H](C(=O)Nc2cc(-c3cnn4c3CC(C)(C)C4)c(Cl)cn2)C1 [AZD4573, reference compound]
 | 16.2 nM |  | CC1(C)Cc2c(-c3cc(NC(=O)[C@@H]4CCC[C@H](c5ccncc5)C4)ncc3Cl)cnn2C1 (single isomer, unassigned) [Compound 21-2]
 | 84.2 nM |  | CC(=O)N1CC[C@]2(CC[C@H](C(=O)Nc3cc(-c4cnn5c4CC(C)(C)C5)c(Cl)cn3)C2)C1 (single isomer, unassigned) [Compound 19-2]
